# From US20240124427A1, “HYDROXYHETEROCYCLOALKANE-CARBAMOYL DERIVATIVES” (Idorsia Pharmaceuticals Ltd, priority 2021, published 2024)
# Target: human Gal-3 (hGal-3) (Homo sapiens (Human), UniProt P17931)
# Assay: Competitive binding assay: biotinylated hGal-3 binding to microplate-adsorbed asialofetuin (ASF)
# Settings: Activity on hGal-3; mean values of several measurements; mixture of diastereomers measured where not separated
# Summary of the method: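 Spectrophotometric read-out using streptavidin-peroxidase and ABTS quantifies how much biotin-hGal-3 remains bound to microplate asialofetuin after 3 h at 4 °C with compound present. Values are means of repeated IC50 determinations.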
# Sequence of human Gal-3 (hGal-3) (P17931 whole entry): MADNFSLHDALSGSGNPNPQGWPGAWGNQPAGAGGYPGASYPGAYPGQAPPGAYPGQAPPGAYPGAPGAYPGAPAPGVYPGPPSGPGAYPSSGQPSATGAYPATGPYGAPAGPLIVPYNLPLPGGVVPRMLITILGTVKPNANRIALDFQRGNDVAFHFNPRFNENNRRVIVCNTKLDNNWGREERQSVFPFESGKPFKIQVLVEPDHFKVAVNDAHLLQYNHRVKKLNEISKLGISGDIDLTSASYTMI
row,IC50 [nM],SMILES
1,222,"CO[C@@H]1[C@@H](n2cc(-c3ccc(Cl)c(Cl)c3)nn2)[C@@H](O)[C@@H](CO)O[C@H]1C(=O)N(c1cc(Br)cc(Br)c1)[C@@H]1COC[C@H]1O [Example 56, (2R,3R,4S,5R,6R)-N-(3,5-dibromophenyl)-4-(4-(3,4-dichlorophenyl)-1H-1,2,3-triazol-1-yl)-5-hydroxy-6-(hydroxymethyl)-N-((3R,4S)-4-hydroxytetrahydrofuran-3-yl)-3-methoxytetrahydro-2H-pyran-2-carboxamide]"
2,151,"CO[C@@H]1[C@@H](n2cc(-c3ccc(Cl)c(Cl)c3)nn2)[C@@H](O)[C@@H](CO)O[C@H]1C(=O)N(c1cc(Br)cc(C#N)c1)[C@@H]1COC[C@H]1O [Example 57, (2R,3R,4S,5R,6R)-N-(3-bromo-5-cyanophenyl)-4-(4-(3,4-dichlorophenyl)-1H-1,2,3-triazol-1-yl)-5-hydroxy-6-(hydroxymethyl)-N-((3R,4S)-4-hydroxytetrahydrofuran-3-yl)-3-methoxytetrahydro-2H-pyran-2-carboxamide]"
3,175,"CO[C@@H]1[C@@H](n2cc(-c3ccc(Cl)c(Cl)c3)nn2)[C@@H](O)[C@@H](CO)O[C@H]1C(=O)N(c1cc(C)cc(Br)c1)[C@@H]1COC[C@H]1O [Example 58, (2R,3R,4S,5R,6R)-N-(3-bromo-5-methylphenyl)-4-(4-(3,4-dichlorophenyl)-1H-1,2,3-triazol-1-yl)-5-hydroxy-6-(hydroxymethyl)-N-((3R,4S)-4-hydroxytetrahydrofuran-3-yl)-3-methoxytetrahydro-2H-pyran-2-carboxamide]"
4,23,"CO[C@@H]1[C@@H](n2cc(-c3cc(F)c(F)c(F)c3)nn2)[C@@H](O)[C@@H](CO)O[C@H]1C(=O)N(c1cc(Cl)cc(Cl)c1)[C@H]1CNC[C@@H]1O [Example 59, (2R,3R,4S,5R,6R)-N-(3,5-dichlorophenyl)-5-hydroxy-6-(hydroxymethyl)-N-((3S,4S)-4-hydroxypyrrolidin-3-yl)-3-methoxy-4-(4-(3,4,5-trifluorophenyl)-1H-1,2,3-triazol-1-yl)tetrahydro-2H-pyran-2-carboxamide]"
5,51,"CO[C@@H]1[C@@H](n2cc(-c3cc(F)c(F)c(F)c3)nn2)[C@@H](O)[C@@H](CO)O[C@H]1C(=O)N(c1cc(Br)cc(C#N)c1)[C@H]1CNC[C@@H]1O [Example 60, (2R,3R,4S,5R,6R)-N-(3-bromo-5-cyanophenyl)-5-hydroxy-6-(hydroxymethyl)-N-((3S,4S)-4-hydroxypyrrolidin-3-yl)-3-methoxy-4-(4-(3,4,5-trifluorophenyl)-1H-1,2,3-triazol-1-yl)tetrahydro-2H-pyran-2-carboxamide]"
6,26,"CO[C@@H]1[C@@H](n2cc(-c3cc(F)c(F)c(F)c3)nn2)[C@@H](O)[C@@H](CO)O[C@H]1C(=O)N(c1cc(C)cc(Br)c1)[C@H]1CNC[C@@H]1O [Example 61, (2R,3R,4S,5R,6R)-N-(3-bromo-5-methylphenyl)-5-hydroxy-6-(hydroxymethyl)-N-((3S,4S)-4-hydroxypyrrolidin-3-yl)-3-methoxy-4-(4-(3,4,5-trifluorophenyl)-1H-1,2,3-triazol-1-yl)tetrahydro-2H-pyran-2-carboxamide]"
7,24,"CO[C@@H]1[C@@H](n2cc(-c3ccc(C)c(F)c3F)nn2)[C@@H](O)[C@@H](CO)O[C@H]1C(=O)N(c1cc(Cl)cc(Cl)c1)[C@H]1CNC[C@@H]1O [Example 63, (2R,3R,4S,5R,6R)-N-(3,5-dichlorophenyl)-4-(4-(2,3-difluoro-4-methylphenyl)-1H-1,2,3-triazol-1-yl)-5-hydroxy-6-(hydroxymethyl)-N-((3S,4S)-4-hydroxypyrrolidin-3-yl)-3-methoxytetrahydro-2H-pyran-2-carboxamide]"
8,25,"CO[C@@H]1[C@@H](n2cc(-c3ccc(C)c(F)c3F)nn2)[C@@H](O)[C@@H](CO)O[C@H]1C(=O)N(c1cc(C)cc(Br)c1)[C@H]1CNC[C@@H]1O [Example 64, (2R,3R,4S,5R,6R)-N-(3-bromo-5-methylphenyl)-4-(4-(2,3-difluoro-4-methylphenyl)-1H-1,2,3-triazol-1-yl)-5-hydroxy-6-(hydroxymethyl)-N-((3S,4S)-4-hydroxypyrrolidin-3-yl)-3-methoxytetrahydro-2H-pyran-2-carboxamide]"
9,54,"CO[C@@H]1[C@@H](n2cc(-c3ccc(Cl)c(Cl)c3)nn2)[C@@H](O)[C@@H](CO)O[C@H]1C(=O)N(c1cc(Cl)cc(Cl)c1)[C@H]1CNC[C@@H]1O [Example 65, (2R,3R,4S,5R,6R)-N-(3,5-dichlorophenyl)-4-(4-(3,4-dichlorophenyl)-1H-1,2,3-triazol-1-yl)-5-hydroxy-6-(hydroxymethyl)-N-((3S,4S)-4-hydroxypyrrolidin-3-yl)-3-methoxytetrahydro-2H-pyran-2-carboxamide]"
10,182,"CO[C@@H]1[C@@H](n2cc(-c3cc(F)c(F)c(F)c3)nn2)[C@@H](O)[C@@H](CO)O[C@H]1C(=O)N(c1cc(Cl)cc(Cl)c1)[C@@H]1CNC[C@H]1O [Example 66, (2R,3R,4S,5R,6R)-N-(3,5-dichlorophenyl)-5-hydroxy-6-(hydroxymethyl)-N-((3R,4R)-4-hydroxypyrrolidin-3-yl)-3-methoxy-4-(4-(3,4,5-trifluorophenyl)-1H-1,2,3-triazol-1-yl)tetrahydro-2H-pyran-2-carboxamide]"
11,129,"CO[C@@H]1[C@@H](n2cc(-c3cc(F)c(F)c(F)c3)nn2)[C@@H](O)[C@@H](CO)O[C@H]1C(=O)N(c1cc(Br)cc(C#N)c1)[C@@H]1CNC[C@H]1O [Example 67, (2R,3R,4S,5R,6R)-N-(3-bromo-5-cyanophenyl)-5-hydroxy-6-(hydroxymethyl)-N-((3R,4R)-4-hydroxypyrrolidin-3-yl)-3-methoxy-4-(4-(3,4,5-trifluorophenyl)-1H-1,2,3-triazol-1-yl)tetrahydro-2H-pyran-2-carboxamide]"
12,222,"CO[C@@H]1[C@@H](n2cc(-c3cc(F)c(F)c(F)c3)nn2)[C@@H](O)[C@@H](CO)O[C@H]1C(=O)N(c1cc(C)cc(Br)c1)[C@@H]1CNC[C@H]1O [Example 68, (2R,3R,4S,5R,6R)-N-(3-bromo-5-methylphenyl)-5-hydroxy-6-(hydroxymethyl)-N-((3R,4R)-4-hydroxypyrrolidin-3-yl)-3-methoxy-4-(4-(3,4,5-trifluorophenyl)-1H-1,2,3-triazol-1-yl)tetrahydro-2H-pyran-2-carboxamide]"
13,38,"CO[C@@H]1[C@@H](n2cc(-c3ccc(C)c(F)c3F)nn2)[C@@H](O)[C@@H](CO)O[C@H]1C(=O)N(c1cc(C)cc(Br)c1)[C@@H]1CNC[C@H]1O [Example 69, (2R,3R,4S,5R,6R)-N-(3-bromo-5-methylphenyl)-4-(4-(2,3-difluoro-4-methylphenyl)-1H-1,2,3-triazol-1-yl)-5-hydroxy-6-(hydroxymethyl)-N-((3R,4R)-4-hydroxypyrrolidin-3-yl)-3-methoxytetrahydro-2H-pyran-2-carboxamide]"
14,36,"CO[C@@H]1[C@@H](n2cc(-c3cc(F)c(F)c(F)c3)nn2)[C@@H](O)[C@@H](CO)O[C@H]1C(=O)N(c1cc(Cl)cc(Cl)c1)[C@H]1CN(C(C)=O)C[C@@H]1O [Example 71, (2R,3R,4S,5R,6R)-N-((3S,4S)-1-acetyl-4-hydroxypyrrolidin-3-yl)-N-(3,5-dichlorophenyl)-5-hydroxy-6-(hydroxymethyl)-3-methoxy-4-(4-(3,4,5-trifluorophenyl)-1H-1,2,3-triazol-1-yl)tetrahydro-2H-pyran-2-carboxamide]"
15,26,"CO[C@@H]1[C@@H](n2cc(-c3cc(F)c(F)c(F)c3)nn2)[C@@H](O)[C@@H](CO)O[C@H]1C(=O)N(c1cc(C)cc(Br)c1)[C@H]1CN(C(C)=O)C[C@@H]1O [Example 72, (2R,3R,4S,5R,6R)-N-((3S,4S)-1-acetyl-4-hydroxypyrrolidin-3-yl)-N-(3-bromo-5-methylphenyl)-5-hydroxy-6-(hydroxymethyl)-3-methoxy-4-(4-(3,4,5-trifluorophenyl)-1H-1,2,3-triazol-1-yl)tetrahydro-2H-pyran-2-carboxamide]"
16,23,"CO[C@@H]1[C@@H](n2cc(-c3ccc(Br)c(F)c3F)nn2)[C@@H](O)[C@@H](CO)O[C@H]1C(=O)N(c1cc(Cl)cc(Cl)c1)[C@H]1CN(C(C)=O)C[C@@H]1O [Example 73, (2R,3R,4S,5R,6R)-N-((3S,4S)-1-acetyl-4-hydroxypyrrolidin-3-yl)-4-(4-(4-bromo-2,3-difluorophenyl)-1H-1,2,3-triazol-1-yl)-N-(3,5-dichlorophenyl)-5-hydroxy-6-(hydroxymethyl)-3-methoxytetrahydro-2H-pyran-2-carboxamide]"
17,27,"CO[C@@H]1[C@@H](n2cc(-c3cc(F)c(C)c(F)c3)nn2)[C@@H](O)[C@@H](CO)O[C@H]1C(=O)N(c1cc(Br)cc(Br)c1)[C@H]1CN(C(C)=O)C[C@@H]1O [Example 74, (2R,3R,4S,5R,6R)-N-((3S,4S)-1-acetyl-4-hydroxypyrrolidin-3-yl)-N-(3,5-dibromophenyl)-4-(4-(3,5-difluoro-4-methylphenyl)-1H-1,2,3-triazol-1-yl)-5-hydroxy-6-(hydroxymethyl)-3-methoxytetrahydro-2H-pyran-2-carboxamide]"
18,22,"CO[C@@H]1[C@@H](n2cc(-c3cc(F)c(C)c(F)c3)nn2)[C@@H](O)[C@@H](CO)O[C@H]1C(=O)N(c1cc(C)cc(Br)c1)[C@H]1CN(C(C)=O)C[C@@H]1O [Example 75, (2R,3R,4S,5R,6R)-N-((3S,4S)-1-acetyl-4-hydroxypyrrolidin-3-yl)-N-(3-bromo-5-methylphenyl)-4-(4-(3,5-difluoro-4-methylphenyl)-1H-1,2,3-triazol-1-yl)-5-hydroxy-6-(hydroxymethyl)-3-methoxytetrahydro-2H-pyran-2-carboxamide]"
19,37,"CO[C@@H]1[C@@H](n2cc(-c3cc(F)c(Cl)c(F)c3)nn2)[C@@H](O)[C@@H](CO)O[C@H]1C(=O)N(c1cc(C)cc(Br)c1)[C@H]1CN(C(C)=O)C[C@@H]1O [Example 76, (2R,3R,4S,5R,6R)-N-((3S,4S)-1-acetyl-4-hydroxypyrrolidin-3-yl)-N-(3-bromo-5-methylphenyl)-4-(4-(4-chloro-3,5-difluorophenyl)-1H-1,2,3-triazol-1-yl)-5-hydroxy-6-(hydroxymethyl)-3-methoxytetrahydro-2H-pyran-2-carboxamide]"
